The results in this text go back to PubChem BioAssay AID2305 (GlaxoSmithKline (GSK), 2010).

The IC50 is the midpoint of a concentration-inhibition curve.

In the assay the test system is P. falciparum 3D7 growth, pLDH absorbance. Put plainly: blood-stage malaria parasite growth potency – strain 3D7, dose response (AID 2305).
Take `CN(C)C(=O)c1cc(CNCc2ccccc2)ccc1-c1cccc(CNCc2ccc(-c3ccccc3)cc2)c1`: the IC50 amounted to 1050 nM.

The molecule `COc1ccc(CNC2CCN(C)CC2)cc1-c1ccc(S(=O)(=O)NCc2ccccc2)cc1` registered an IC50 of 600 nM.

Molecule `COc1cc2ncnc(NCCc3ccccc3Cl)c2cc1OC` showed an IC50 of 1120 nM.

The molecule `O=C(NCC1CCN(C/C=C/c2ccccc2)CC1)Nc1ccc(Oc2ccccc2)cc1` registered an IC50 of 1040 nM.

Regarding `Cc1nc2nc(N)nc(N)c2c(C)c1Cc1cccc(C(F)(F)F)c1`, the half-maximal inhibitory concentration (IC50) turned out to be 1290 nM.

`COc1ccc2nccc([C@@H](O)CN3CCC(NC[C@H](Cc4ccccc4)NC(=O)OC(C)(C)C)CC3)c2c1` returned an IC50 of 230 nM.

Molecule `CCOc1ccc2nc(C)cc(NN=Cc3ccccc3[N+](=O)[O-])c2c1` had an IC50 of 30 nM.

With `COc1ccc2nc(C)cc(NN=Cc3cc(C)ccc3O)c2c1`, the IC50 came out at 140 nM.

The molecule `CC(C)CCN1CCCN(Cc2ccc(C(=O)Nc3ccc(C(C)(C)C)cc3)cc2)CC1` showed an IC50 of 870 nM.

For `CN1CCCc2ccc(NC(=O)c3cc(-c4ccc(Cl)cc4)cs3)cc2C1`, the IC50 was determined as 790 nM.

Regarding `O=C1CCCC1Sc1nc2ccccc2c(=O)n1-c1ccc(Cl)c(Cl)c1` (stereo not given), the IC50 came out at 730 nM.

`CC[C@H]1CN(Cc2ccccc2Br)CC[C@H]1CCCc1ccnc2ccc(O)cc12` returned an IC50 of 1000 nM.

For the molecule `Cc1cccc2[nH]c(-c3cccc(-c4cccc(NC(=O)COc5ccccc5C(N)=O)c4)c3)nc12`, the IC50 turned out to be 160 nM.

With `O=C(Nc1cc(Cl)ccc1O)c1cnn2c(C(F)(F)F)cc(-c3cccs3)nc12`, the IC50 was found to be 860 nM.

Turning to `CN1CCC(C(=O)Nc2cccc(-c3ccc(-c4nc5ccc(C(F)(F)F)cc5[nH]4)cc3)c2)CC1`, the IC50 came out at 680 nM.

Turning to `Cc1noc(C)c1-c1cccc(CNCc2cccc(-c3ccc(-c4nc5ccccc5[nH]4)cc3)c2)c1`, the IC50 worked out at 230 nM.

For `c1ccc(CN2CCC(NCc3ccccc3-c3cccc(CNCc4ccc5c(c4)OCO5)c3)CC2)cc1`, the IC50 came to 570 nM.

Consider `Cc1ccoc1C(=O)Nc1cccc(-c2cccc(-c3nc4ccccc4[nH]3)c2)c1`, for which the IC50 was determined as 1220 nM.

With `COc1ccc(Nc2nccc(N3CCC(NC(=O)Nc4cc(C)ccc4C)C3)n2)cc1` (stereo not given), the IC50 turned out to be 900 nM.

In the case of `Cc1cc(N[C@@H](CC(C)C)C(=O)NCCOc2ccccc2)nc(Nc2ccccc2)n1`, the IC50 came out at 1110 nM.

As to `O=C(Nc1ccc(-c2nc3ccccc3[nH]2)cc1)c1ccc(Cl)c([N+](=O)[O-])c1`, the IC50 was 800 nM.

`COC(=O)c1ccc(NC(=O)Nc2ccc(Cn3ncc(N4CCCNCC4)c(Cl)c3=O)cc2)cc1` gave an IC50 of 600 nM.

With `COc1cc2nc(N3CCC(CNC(=O)c4ccc(-c5ccccc5)cc4)CC3)nc(N)c2cc1OC`, the IC50 came out at 570 nM.

In turn, `CCOC(=O)c1c(SCc2cccc(F)c2F)[nH]c2ccccc2c1=O` returned an IC50 of 640 nM.

In turn, `O=C(Nc1ccnc(N2C[C@H]3C[C@@H]2CN3Cc2cccc(O)c2)c1)c1ccc(F)cc1` registered an IC50 of 1240 nM.

In turn, `CCCN1CCN(c2cc(S(=O)(=O)Nc3ccc(C(=O)NCc4cccc(C(F)(F)F)c4)cc3)ccc2OC)CC1` displayed an IC50 of 1010 nM.

Take `O=C(N[C@H]1CCN(Cc2ccc(OC3CCN(Cc4ccccc4)CC3)cc2)C1)c1ccc(Cl)c(Cl)c1`: the concentration for half-maximal inhibition (IC50) stood at 730 nM.

Take `Cc1[nH]c(C)c(-c2ccc(Oc3ccc(Cl)cc3)cc2)c(=O)c1Br`: the IC50 came to 590 nM.

In the case of `CCCNC(=O)c1cncc(-c2ccc(CNC(CC)c3ccccc3)cc2)c1` (stereo not given), the IC50 was 880 nM.

The molecule `NC(=O)c1cccc(C(=O)Nc2cccc(-c3ccc(-c4nc5ccccc5[nH]4)s3)c2)c1` had an IC50 of 350 nM.

For `O=S(=O)(NCCN1CCCC1)c1ccc(-c2cccc(CNCCc3cccs3)c2)s1`, the IC50 was 700 nM.

`CCn1cc(CN2C(=O)C(c3ccccc3)(c3ccccc3)N=C2N)cn1`: the IC50 was found to be 820 nM.

In turn, `CCCCCCCN1CC[C@@H](CCCc2ccnc3ccc(OCCC4CCNCC4)cc23)[C@@H](CC)C1` came in with an IC50 of 610 nM.

Consider `CCCc1cc(=O)[nH]c(-n2nc(C)cc2NC(=O)C(CC)c2ccccc2)n1` (stereo not given), for which the IC50 is 940 nM.

`COc1cc(OC)cc(C(=O)N2CCOC(CCN3CCC(c4ccccc4)CC3)(c3ccc(Cl)c(Cl)c3)C2)c1` (stereo not given) displayed an IC50 of 440 nM.

`CCOC(=O)Cn1ccc2c(NCc3ccccc3)nc(C)nc21` came in with an IC50 of 370 nM.

The molecule `CN(c1ccccc1)c1ccnc(/N=C(\N)Nc2ccc(Cl)cc2)n1` gave an IC50 of 1090 nM.

As to `CC[C@H](C)CNC(=O)c1cncc(-c2ccc(CN(C)C3CCN(C)CC3)cc2)c1`, the concentration for half-maximal inhibition (IC50) was 990 nM.

In turn, `CCC(=O)NC(c1ccco1)c1cc(Cl)c2cccnc2c1O` (stereo not given) registered an IC50 of 870 nM.

In the case of `FC(F)(F)c1ccc2nc(-c3ccc(-c4cccc(CNCC5CCCO5)c4)cc3)[nH]c2c1` (stereo not given), the IC50 turned out to be 250 nM.

`COc1cc2nc(C)nc(Nc3ccc4c(ccn4Cc4ccccc4)c3)c2cc1OC` yielded an IC50 of 560 nM.

Molecule `Fc1ccc2nc(-c3cccc(-c4ccc(CN5CCN(c6cnccn6)CC5)cc4)c3)[nH]c2c1` returned an IC50 of 890 nM.

Regarding `N#Cc1cc(C(=O)c2cc(Br)ccc2O)cn(-c2cc(Cl)cc(Cl)c2)c1=O`, the IC50 was found to be 880 nM.

In the case of `COc1ccccc1Cn1ccnc1SCC(=O)Nc1cccc(C(F)(F)F)c1`, the IC50 was 910 nM.

For the molecule `COc1ccc2ncc(F)c(CCN3CC[C@@H](CNCc4ccc5c(c4C)OCCO5)C3)c2n1`, the IC50 was 1030 nM.
